Experimental data as given in publication PMC10852989, “Combining cisplatin and a STING agonist into one molecule for metalloimmunotherapy of cancer” (National Science Review, 2024).

Columns and labels:
[1] = system: BxPC3 cells; assay: 72 h MTT cytotoxicity, BxPC3; assay type: cell-based, human
Method: (§1) Cytotoxicity. Tumor cells were cultured overnight after inoculation in RPMI-1640 medium or DMEM supplemented with 10% FBS. All cultures were maintained in an incubator in a highly humidified atmosphere of 95% air with 5% CO2 at 37 °C. Growth inhibition was measured with an MTT assay. Briefly, 2800–7000 cells per well in culture medium (100 μL) were plated in 96-well plates (Corning). The cells were treated in triplicate with different concentrations of complexes at 37 ℃ for 72 h. Stock solutions of CDDP and oxoplatin were prepared in PBS, while stock solutions of conjugates I and II and the ligand MSA-2 were prepared in DMSO. The stock solutions were diluted in complete medium (DMSO < 0.5%). An aliquot of MTT solution (40 μL, 2.5 mg·mL^–1) in PBS buffer was added to each well and incubated for 4 h. The supernatant was removed and DMSO (150 μL) was added to solubilize the formazan crystals. The amount of formazan was determined using a microplate reader at 570 nm after the plates were shaken for 30 min. The optical density (OD) was used to calculate the percentage of viable cells relative to untreated control values. Background readings for MTT incubated in cell-free medium were subtracted from each value before calculation. […] The mean IC50 values were calculated using data from three replicates.

[2] = system: Pan02 tumors; assay: scRNA-seq of Pan02 tumors; assay type: in vivo, mouse; settings: scRNA-seq at treatment endpoint, versus untreated
Text: ScRNA-seq. Tumors were excised from individual mice after treatment using a dissecting microscope and pooled. The tumors were cryopreserved in FBS + 10% DMSO. Samples were subsequently thawed, washed, sorted to isolate living cells and then performed on the 10X Genomics 5’ Chromium v2.0 platform according to the manufacturer’s instructions. Libraries were generated per the manufacturer’s protocol and sequenced on an Illumina HiSeq 2500 with the “rapid run” mode according to the standard 10X Genomics protocol. Data analysis was conducted by Singleron Biotech. Co. Ltd. using Cellranger and R.
Cell type annotation. The cell type identity of each cluster was determined from the expression of canonical markers found in the DEGs using SynEcoSys database. Heatmaps displaying the expression of markers used to identify each cell type were generated by Seurat v3.12 DoHeatmap.

[3] = system: Pan02 tumors; assay: in vivo antitumor activity, C57BL/6 mice bearing Pan02 tumors; design: species or system mouse
Method: In vivo antitumor activity. Female C57BL/6 mice (6–8 weeks old) were subcutaneously implanted with pan02 cells (2 × 10^6) in the right flank. Once the tumor volume reached approximately 60 mm^3, the mice were assigned to 4 groups at random (n = 5–8) and received treatment with PBS, CDDP (10.0 μmol/kg), I (10.0 μmol/kg), or a mixture of CDDP (10.0 μmol/kg) and MSA-2 (10.0 μmol/kg). The mice received 9 treatments. Changes in body weight and tumor volume were recorded. All the experimental procedures utilizing mice were performed in accordance with the Guidelines for Care and Use of Laboratory Animals of Nanjing University and experiments were approved by the Institutional Animal Care and Use Committee of Nanjing University (IACUC-2101001, SL-019-00).

[4] = system: HK-2 cells; assay: 72 h MTT cytotoxicity, HK-2; assay type: cell-based; settings: human normal kidney cell line
Method: as §1

[5] = system: Pan02 cells; assay: Pan02 cell viability with cell death inhibitors / at matched Pt uptake; assay type: cell-based; settings: Pan02, I 0.2 μM; necrostatin-1 50 μM, ferrostatin 50 μM
Method: For Pan02 cells, the cell viability in the presence of different cell death inhibitors was also determined. Therefore, Pan02 cells were respectively pre-incubated with z-VAD-fmk (50 μM), 3-Methyladenine (100 μM), ferrostatin (50 μM), necrostatin-1 (50 μM) 1 h, and then co-incubated I (0.2 μM) for 72 h. The cell viability was then determined.
Fig. S17. (A) The chemical structure of Pt-E-I. (B) Cellular uptake of Pt (ng Pt/mg protein) in Pan02 cells after exposure to Pt-E-I (5 μM) for 6 h. NH4Cl: cells preincubated with 50 mM NH4Cl; MI: cells preincubated with 50 mM 2-deoxy-D-glucose and 5 μΜ oligomycin. (C) Cellular uptake of Pt (ng Pt/mg protein) in Pan02 cells after exposure to I and Pt-E-I (1, 2, 5, 10, 20 μM) for 6 h. (D) The cell viability of Pan02 treated with I (5 μM) and Pt-E-I (20 μM). (E) Hierarchical clustering of differentially expressed genes between I-treated (5 μM) Pan02 cells, Pt-E-I-treated (20 μM) and nontreated cells.

[6] = system: cancer cell lines (MCF-7, Caov3, PANC-1, BxPC3, Pan02); assay: 72 h MTT cytotoxicity, panel of cancer cell lines; assay type: cell-based
Method: as §1

[7] = system: MCF-7 cells; assay: 72 h MTT cytotoxicity, MCF-7; assay type: cell-based, human
Method: as §1

[8] = H&E histology of major organs after treatment; assay type: in vivo, mouse; settings: C57BL/6 mice after treatment, 10.0 μmol/kg
Method: Hematoxylin and eosin staining. Tissue samples were subjected to histopathological examination using hematoxylin and eosin (H&E) staining. Mouse organs (heart, liver, spleen, lungs and kidneys) were collected in 4% paraformaldehyde for proper fixation and then embedded in paraffin using a tissue embedding machine. Sections were prepared in an orderly manner by dewaxing, dehydration, and H&E staining. The tissue morphology was observed under a fluorescence microscope (Olympus BX41, Japan).

[9] = octanol-water partition coefficient, shake-flask, ICP-MS; assay type: physicochemical; settings: n-octanol / phosphate buffer 10 mM pH 7.4, room temperature
Method: Lipid-water partition coefficient. The shake-flask method was used to measure the partition coefficients of CDDP, I and II. Briefly, a mixture containing equal volumes of n-octanol and phosphate buffer (10 mM, pH 7.4) was shaken on a mechanical shaker at room temperature for 24 h. Complexes (10 mM) in phosphate buffer (presaturated with n-octanol) were mixed with an equal volume of n-octanol (presaturated with phosphate buffer), and the mixture was shaken for 24 h at room temperature. Centrifugation was carried out at 2500 rpm for 30 min to separate the two phases. The aqueous layer was carefully separated, and the Pt content in the initial and final aqueous phases was analyzed by inductively coupled plasma mass spectrometry (ICP-MS). The log PO/W was measured using the following equation: log PO/W = log [(Ptinitial ‒ Ptfinal)/Ptfinal].

[10] = system: Caov3 cells; assay: 72 h MTT cytotoxicity, Caov3; assay type: cell-based, human
Method: as §1

[11] = system: Pan02 cells; assay: 72 h MTT cytotoxicity, Pan02; assay type: cell-based, mouse
Method: as §1

COc1cc2cc(C(=O)CCC(=O)[O][Pt]([NH2])([NH2])([OH])([Cl])[Cl])sc2cc1OC [conjugate I]
IC50 [1]: 20 ± 10 nM | frequencies of CD8 effector T, CD4 T and NK cells [2]: increased | percentage of tumor cells [2]: decreased | tumor volume ([3]; C57BL/6 mice, Pan02 tumors, 10.0 μmol/kg every 2 days for 16 days, intravenous): 106.3 ± 6.2 mm^3 | tumor growth after cessation of treatment ([3]; monitored another 6 days): substantially suppressed | IC50 [4]: 120 ± 10 nM | cell killing on co-incubation with necroptosis and ferroptosis inhibitors [5]: significant reversal of cell killing | IC50 in these cancer cell lines [6]: submicromolar | IC50 [7]: 300 ± 100 nM | histological findings in major organs [8]: only mild vacuolar degeneration in the liver and aggregates containing only a few inflammatory cells in the lungs | octanol-water partition coefficient (logPo/w) [9]: 0.9 | IC50 [10]: 700 ± 100 nM | IC50 [11]: 50 ± 10 nM
